System: T. cruzi intracellular amastigotes in H9c2 cells
Assay: Rate-of-Kill (RoK) high-content imaging assay, amastigotes per cell (AM/CELL) and curve descriptors
Assay type: cell-based, Trypanosoma cruzi
Design: key to ME_24h / ME_48h / ME_72h: % reduction in parasite burden (cidal response); t50pct_MCC50 / t50pct_Cmax: unit not given here
Conditions: for ME_24h: 24h; for ME_48h: 48h; for ME_72h: 72h; for AM/CELL NORM: sheet figure 4 A; for t50%_Cmax / tlag_Cmax / t50pct_Cmax: at Cmax; for ME_24h (%): maximum effect at 24 h; for ME_24h (%) / ME_48h (%) / ME_72h (%): RoK assay; for ME_48h (%): maximum effect at 48 h; for ME_72h (%): maximum effect at 72 h; for ME 24h (maximum effect at 24 hours, intracellular amastigotes): maximum percentage of parasite burden reduction reached by any concentration
Outline: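 Readouts at each time point are amastigotes per cell and host nuclei count (cytotoxicity), from DRAQ5 high-content imaging. Infection: trypomastigotes on H9c2 at MOI 8 for 18 h. Dosing was 5 μM single point or 11 points, 1/3 steps from 50 μM. Effect scaled between 4 h infected and uninfected controls.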

Row | Compound | ME_24h (figure 5) | ME_48h (figure 5) | ME_72h (figure 5) | MCC50 (RoK curve descriptor) | MCCE (RoK curve descriptor) | AM/CELL NORM (Time 4) | AM/CELL NORM (Time 24) | AM/CELL NORM (Time 48) | AM/CELL NORM (Time 72) | tlag_Cmax | t50pct_Cmax (figure 5) | tlag_Cmax (figure 5) | t50%_MCC50 (at MCC50) | t50pct_MCC50 (at MCC50, figure 5) | tlag_MCC50 (at MCC50, figure 5) | MCCE (figure 5) | ME_24h (%) | ME_48h (%) | ME_72h (%) | ME 24h (maximum effect at 24 hours, intracellular amastigotes) | other results
1 | CCN(CC)S(=O)(=O)c1ccc(C(=O)Nc2cc(C)nn2-c2nc(C)c(C)c(=O)[nH]2)cc1 [TCMDC-143273] | -21.3076 | 17.6407 | 21.9061 | 1.9 µM | 0.6 µM | -1.286 | -40.8598 | 1.208 | 53.2799 | 24.0 h | 72 | 24 | 72.0 h | 72 | 38 | 0.6173 | -21.3% | 17.6% | 21.9% | 4.663% | t50%_Cmax: 72.0 h; tlag_MCC50 (at MCC50): 4.0 h; MCC50 (figure 5, in µM): 25.9259
2 | COc1ccc(C(C)(C)C)cc1S(=O)(=O)n1ccnc1 [TCMDC-143275] | -36.0217 | -75.3113 | 19.8776 | – | 0.2 µM | 7.308 | -56.5644 | -75.3113 | -31.1405 | 48.0 h | 72 | 48 | – | 72 | 72 | 0.2058 | -36.0% | -75.3% | 19.9% | -36.0217% | MCC50 (figure 5): 50 µM
3 | CCCn1c(NC(=O)Cc2ccc(Cl)cc2)nc2ccccc21 [TCMDC-143279] | -55.8269 | -85.7556 | -269.589 | 5.6 µM | 9.3 µM | 0.2091 | -159.496 | -347.093 | -621.538 | 38.0 h | 72 | 38 | 48.0 h | 60 | 48 | 9.259 | -55.8% | -85.8% | -269.6% | 3.26% | tlag_MCC50 (at MCC50): 24.0 h; MCC50 (figure 5, in µM): 27.7778
4 | CCC(=O)Nc1ccc(C(=O)Nc2ccccc2-c2ccccc2)cc1 [TCMDC-143286] | 59.883 | 81.1358 | 89.3246 | 1.9 µM | 0.6 µM | 27.4861 | 59.883 | 81.1358 | 89.3246 | 4.0 h | 24 | 4 | 48.0 h | 48 | 4 | 0.6173 | 59.9% | 81.1% | 89.3% | 59.883% | t50%_Cmax: 24.0 h; tlag_MCC50 (at MCC50): 4.0 h; MCC50 (figure 5, in µM): 1.852
5 | Cc1cccnc1CN1CCN(CCCOc2ccc(-c3ccc(C(N)=O)cc3)cc2)CC1 [TCMDC-143291] | -149.164 | -418.951 | -403.993 | – | 16.7 µM | 9.834 | -41.6178 | -122.335 | -107.466 | 48.0 h | 72 | 48 | – | 72 | 72 | 16.6667 | -149.2% | -419.0% | -404.0% | -41.6178% | MCC50 (figure 5): 50 µM
6 | COc1ccc(C(C)N(C)c2ncc3c(N)nc(N)nc3n2)cc1F (stereo not drawn) [TCMDC-143298] | 43.2682 | 65.4547 | 72.4604 | 1.4 µM | 0.16 µM | 12.1557 | 34.3534 | 59.1852 | 72.1771 | 4.0 h | 64 | 4 | 56.0 h | 56 | 4 | 0.16 | 43.3% | 65.5% | 72.5% | 45.8485% | MCC and MCCE values (in words): low MCC and MCCE values; ME (maximum effect) in RoK assay (in words): high ME value; tlag times: 4 h; t50%_Cmax: 64.0 h; tlag_MCC50 (at MCC50): 4.0 h; MCC50 (figure 5): 1.44 µM
7 | O=C(NCc1ccncc1)c1ccccc1N1CCCN(C(=O)Cc2ccc(F)c(F)c2)CC1.O=C(O)C(F)(F)F.O=C(O)C(F)(F)F [TCMDC-143300] | -279.048 | -72.5657 | 30.5548 | – | 0.07 µM | -9.816 | -279.048 | -94.5412 | 9.95 | 24.0 h | 72 | 24 | – | 72 | 72 | 0.06859 | -279.1% | -72.6% | 30.6% | -279.048% | MCC50 (figure 5): 50 µM
8 | O=C(O)C(F)(F)F.O=c1ccc2ccc(F)c3c2n1C[C@H]3CN1CCC(NCc2cc3ccccc3o2)CC1 [TCMDC-143301] | 26.9481 | 43.1407 | 49.4796 | – | 0.2 µM | 0.9981 | 26.9481 | 43.1407 | 49.4796 | 4.0 h | 72 | 4 | – | 72 | 72 | 0.2058 | 27.0% | 43.1% | 49.5% | 26.9481% | MCC50 (figure 5): 50 µM
9 | CS(=O)(=O)NC1CCC(Oc2cc3cnccc3cc2-c2ccsc2)CC1.O=C(O)C(F)(F)F (stereo not drawn) [TCMDC-143302] | 1.036 | 27.0388 | 21.5908 | – | 0.6 µM | -2.284 | 1.036 | 27.0388 | -4.309 | 4.0 h | 72 | 4 | – | 72 | 72 | 0.6173 | 1.0% | 27.0% | 21.6% | 1.036% | MCC50 (figure 5): 50 µM
10 | Cc1c(C(=O)NCCCCn2ccnc2)oc2c(C)cccc12 [TCMDC-143304] | -97.6451 | -43.6144 | 81.5916 | 1.9 µM | 0.6 µM | -4.678 | -97.6451 | -43.6144 | 60.7007 | 24.0 h | 72 | 24 | 72.0 h | 72 | 48 | 0.6173 | -97.7% | -43.6% | 81.6% | -97.6451% | t50%_Cmax: 72.0 h; tlag_MCC50 (at MCC50): 48.0 h; MCC50 (figure 5, in µM): 1.852
11 | COc1ccc(C(=O)Nc2cc(C(F)(F)F)ccc2N2CCOCC2)c(OC)c1 [TCMDC-143310] | 64.6908 | 80.1309 | 94.1302 | 1.9 µM | 0.6 µM | -57.2428 | 64.6908 | 80.1309 | 94.1302 | 4.0 h | 24 | 4 | 72.0 h | 72 | 4 | 0.6173 | 64.7% | 80.1% | 94.1% | 64.6908% | t50%_Cmax: 24.0 h; tlag_MCC50 (at MCC50): 4.0 h; MCC50 (figure 5, in µM): 1.852
12 | FC(F)(F)c1cc(C2CCCN(Cc3c[nH]c4ccccc34)C2)nc2ncnn12.O=C(O)C(O)C(O)C(=O)O (stereo not drawn) [TCMDC-143311] | 20.357 | 59.0796 | 83.5796 | 50.0 µM | 16.7 µM | -4.224 | 20.357 | 59.0796 | 83.5796 | 4.0 h | 48 | 4 | 48.0 h | 48 | 4 | 16.6667 | 20.4% | 59.1% | 83.6% | 20.357% | t50%_Cmax: 48.0 h; tlag_MCC50 (at MCC50): 4.0 h; MCC50 (figure 5): 50 µM

From PMC8318231, “Rate-of-Kill (RoK) assays to triage large compound sets for Chagas disease drug discovery: Application to GSK Chagas Box” (PLoS Neglected Tropical Diseases, 2021)
